Data reported in patent US20240207265A1, “TREATMENT OF CNS DISEASES WITH sGC STIMULATORS” (Tisento Therapeutics Inc., priority 2021, published 2024).

Columns and labels:
[1] = system: normotensive rats; experiment: Blood pressure effects in normotensive rats after acute oral dose; format: in vivo, rat; settings: for Peak ΔVMAP (mm Hg): sodium salt in Milli-Q water, vehicle-adjusted MAP; for Time at Peak: time of peak ΔVMAP
Description: Male, normotensive Sprague Dawley rats were purchased from Charles River Laboratories. These rats have indwelling femoral artery catheters installed. Animals were harnessed to a tether system and attached to pressure transducers to monitor cardiovascular (CV) parameters, specifically mean arterial pressure (MAP) and heart rate (HR). Animals were acclimated to the system overnight and baseline CV parameters collected. […] A blood sample was collected from each animal through the catheter line at pre-dose and 2 hours post-dose for compound concentration quantification. Hemodynamic measures were recorded for ten hours post-dose. Fifty-four male rats were used for these studies and they were ordered to be received at a body weight range of 250-275 grams. They were single housed under controlled conditions of temperature (21±1° C.), relative humidity (36±1%) and placed in a 12-hr light-dark cycle (lights on at 6:00 AM and off at 6:00 PM) room at SmartLabs vivarium (21 Erie Street, Cambridge, MA) under protocol MIL-110. Animals were allowed ad libitum access to chow (LabDiet Prolab Isopro RMH 3000, St. Louis, MO) and water. Two sets of studies were carried out. […] […] Formulations prepared were thawed less than 4 hours before dosing and stored at room temperature or were made less than 2 hours before dosing and stored at room temperature.
This study utilized ADInstruments LabChart (v8) to collect hemodynamic data from conscious, freely moving rats tethered to a blood pressure transducer (Harvard Apparatus cat #APT300). Following an overnight acclimation to the tether and pressure transducer, animals were dosed following a 1-hr baseline recording period. Animals were administered a single oral (P.O.) dose of the sodium salt form of Compound I-14 or vehicle at a dose volume of 10 mL/kg. Data collection was continued for 10 hours post-dose.
ADInstruments LabChart (v8) was used to monitor and export hemodynamic data. Blood pressure and heart rate were continuously monitored, and data were collected at 1000 data points per second then averaged into 10-minute bins for analysis. Change from baseline MAP (ΔBMAP) and HR (ΔBHR) were calculated using the pre-dose baseline averaged over the 1-hr period prior to dosing using Microsoft Excel for Microsoft 365. This 10-minute bin dataset was used to determine peak ΔVMAP, time peak ΔVMAP, peak ΔVHR and time of peak ΔVHR. The dataset was further consolidated into 1-hr bins for the MAP and HR figures and the analysis of ΔBMAP, ΔBMAP, and ΔBHR. The definitions of these terms/abbreviations are summarized below:
Statistical analyses were performed in Graphpad Prism (v8). Significance, as compared to vehicle-treated rats, for ΔBMAP and ΔBHR data was determined by 2-way repeated measures ANOVA followed by a Dunnett's multiple comparisons test, if there was a missing data point, a mixed-effect analysis was utilized. Vehicle-adjusted MAP (ΔVMAP) was calculated by subtracting ΔBMAP of the vehicle group from the ΔBMAP of each dose group at each timepoint. Vehicle-adjusted HR (ΔVHR) was calculated in a similar manner to ΔVMAP.
Analogous studies to the ones described above were carried out with Compound I-20. […] A blood sample was collected from each animal through the catheter line at pre-dose and 2 hours post-dose for compound concentration quantification. Hemodynamic measures were recorded for ten hours post-dose.

[2] = Rat cerebrospinal fluid (CSF) pharmacokinetics; format: in vivo; settings: male, Sprague-Dawley, rat CSF/unbound plasma
Experimental: PK in rats was determined following oral dosing. For the oral (PO) experiments, a group of 6 male Sprague-Dawley rats with an indwelling catheter placed in the cisterna magna were used. The PO group was dosed with 3.0, or 10 mg/kg of a compound formulated as a solution in PEG400 or suspension in 0.5% Tween 80 and 0.5% Methylcellulose in water. PO doses were administered by oral gavage and delivered to the stomach using a syringe and gavage tube. Following oral dosage administration, the gavage tube was flushed with approximately 0.5 mL of water to ensure complete delivery of the full dose.
Plasma samples were collected as follows: samples of CSF and blood were collected at 1 hour, 2, and optionally at 4 hours post-dosing. CSF samples (0.05 mL) were collected through the intracisternal catheter. Blood samples (0.25 mL) were collected through tail nick sampling. These samples were kept on ice until processed for plasma. Blood samples were centrifuged at 3200 rpm for 5 minutes at approximately 5° C. within 1 hour of collection. Plasma was directly transferred to individual Eppendorf tubes (0.125 mL). Plug caps were placed on the tubes and the tubes frozen at approximately −70° C. and stored until analysis. Plasma and CSF was collected and analyzed for the presence of a compound.
The compound in question and the internal standard were extracted from plasma by precipitation and from CSF by either precipitation or dilution. Samples were analyzed using liquid chromatography (LC) with tandem mass spectrometric detection (MS/MS) using electrospray ionization. The standard curve ranged from 0.1 to 1000 ng/mL. Results of the compounds described herein in this assay are illustrated in Table G below (for a 10 mg/kg dose and/or 3 mg/kg of the compound). Compound concentrations from several animals were combined to give the geometrical mean at each specific dosage and timepoint.
Kp,uu is defined as the concentration ratio of unbound drug in CSF to unbound drug in plasma. Unbound drug in plasma (or free plasma concentration) is calculated by multiplying the total plasma concentration by the unbound fraction as determined by plasma protein binding. The CSF concentration is then divided by the free plasma concentration to determine the Kp,uu. (See e.g., Di et al., J. Med. Chem., 56, 2-12 (2013))

| Kp uu at 1 h ([2]; PO 3 mg/kg) | Kp uu at 2 h ([2]; PO 3 mg/kg) | Kp uu at 4 h ([2]; PO 3 mg/kg) | Kp uu at 1 h ([2]; PO 10 mg/kg) | Kp uu at 2 h ([2]; PO 10 mg/kg) | Kp uu at 4 h ([2]; PO 10 mg/kg) | SMILES | maximal reduction of MAP from baseline (ΔBMAP) ([1]; formulated in PEG400, 10 mg/kg) | time after dosing of maximal/peak ΔBMAP ([1]; formulated in PEG400, 10 mg/kg) | Peak ΔVMAP (mm Hg) ([1]; 1 mg/kg single oral dose) | Time at Peak ([1]; 1 mg/kg single oral dose) | Peak ΔVMAP (mm Hg) ([1]; 3 mg/kg single oral dose) | Time at Peak ([1]; 3 mg/kg single oral dose) | Peak ΔVMAP (mm Hg) ([1]; 10 mg/kg single oral dose) | Time at Peak ([1]; 10 mg/kg single oral dose) | Peak ΔVMAP (mm Hg) ([1]; 30 mg/kg single oral dose) | Time at Peak ([1]; 30 mg/kg single oral dose) | effect on MAP from baseline and as adjusted from vehicle ([1]; single oral dose 3, 10, and 30 mg/kg) | no effect dose on ΔBMAP ([1]; single oral dose, main effect analysis, simple effects analysis and AOC) | peak ΔBMAP ([1]; formulated in PEG400, 10 mg/kg) |
| --- | --- | --- | --- | --- | --- | --- | --- | --- | --- | --- | --- | --- | --- | --- | --- | --- | --- | --- | --- |
| ≤ 1 | 1 to 2 | 1 to 2 |  |  |  | Oc1nc(-c2cn3ccnc3c(Cc3cccc(F)c3F)n2)ncc1F [Compound I-4, 2-(8-(2,3-Difluorobenzyl)imidazo[1,2-a]pyrazin-6-yl)-5-fluoropyrimidin-4-ol] | 20 mm Hg | 50 min |  |  |  |  |  |  |  |  |  |  |  |
| 2 to 3 | 2 to 3 | 2 to 3 |  |  |  | Oc1nc(-c2cn3c(F)cnc3c(Cc3cc(F)ccc3F)n2)ncc1F [Compound I-5] |  |  |  |  |  |  |  |  |  |  |  |  |  |
| > 3 | > 3 | > 3 | > 3 | > 3 | 2 to 3 | Cc1cc(F)c(Cc2nc(-c3ncc(F)c(O)n3)cn3ccnc23)cc1F [Compound I-14, 5-fluoro-2-(8-(2,5-difluoro-4-methylbenzyl)imidazo[1,2-a]pyrazin-6-yl)pyrimidin-4-ol] |  |  | −6.2 mm Hg | 90 min | −10.1 mm Hg | 70 min | −22.3 mm Hg | 30 min | −24.4 mm Hg | 30 min | lowered MAP from baseline and as adjusted from vehicle | 1 mg/kg |  |
| > 3 | > 3 | > 3 |  |  |  | Oc1nc(-c2cn3ccnc3c(Cc3cc(F)ccc3F)n2)ncc1Cl [Compound I-16, 5-chloro-2-(8-(2,5-difluorobenzyl)imidazo[1,2-a]pyrazin-6-yl)pyrimidin-4-ol] |  |  |  |  |  |  |  |  |  |  |  |  |  |
| 1 to 2 | 1 to 2 | 1 to 2 |  |  |  | Cc1cc(F)c(Cc2nc(-c3ncc(F)c(O)n3)cn3c(F)cnc23)cc1F [Compound I-18] |  |  |  |  |  |  |  |  |  |  |  |  |  |
| 2 to 3 | 2 to 3 | 2 to 3 | 1 to 2 | 2 to 3 | 2 to 3 | Oc1nc(-c2cn3ccnc3c(Cc3cc(F)ccc3F)n2)ncc1F [Compound I-20, 5-fluoro-2-(8-(2,5-difluorobenzyl)imidazo[1,2-a]pyrazin-6-yl)pyrimidin-4-ol] |  | 42 min | −14.3 mm Hg | 20 min | −19.2 mm Hg | 20 min | −20.2 mm Hg | 30 min | −38.1 mm Hg | 30 min |  |  | −26 mm Hg |
